According to US8748436B2, “Carboxylic acid derivatives having a 2,5,7-substituted oxazolopyrimidine ring” (Sanofi, priority 2010, dated 2014):

Target: T1, human Edg-1 receptor (Homo sapiens, UniProt P21453)
T1 construct: FLAG (N); expressed in transfected cells; membrane preparation
Experiment: GTP-γ-S assay using human Edg-1 receptors (scintillation proximity assay, CHO Flp-In cell membrane preparation)
Assay type: biochemical
Conditions: test compound at 10 μM; high control 10 μM S1P regarded as 100% activation; [35S]GTP-γ-S binding, triplicate; read-out: % Activation (Edg-1 receptor activation in percent of the activation by 10 μM S1P)
How it was run: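 Scintillation proximity GTP-γ-S binding measured receptor activation. Membranes came from a stably transfected CHO Flp-In line constitutively overexpressing N-terminally FLAG-tagged human Edg-1. Membranes were prepared by hypotonic lysis (5 mM HEPES, 1 mM EDTA, protease inhibitors) at 4 °C and Dounce homogenisation.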

T1 sequence (P21453 whole entry): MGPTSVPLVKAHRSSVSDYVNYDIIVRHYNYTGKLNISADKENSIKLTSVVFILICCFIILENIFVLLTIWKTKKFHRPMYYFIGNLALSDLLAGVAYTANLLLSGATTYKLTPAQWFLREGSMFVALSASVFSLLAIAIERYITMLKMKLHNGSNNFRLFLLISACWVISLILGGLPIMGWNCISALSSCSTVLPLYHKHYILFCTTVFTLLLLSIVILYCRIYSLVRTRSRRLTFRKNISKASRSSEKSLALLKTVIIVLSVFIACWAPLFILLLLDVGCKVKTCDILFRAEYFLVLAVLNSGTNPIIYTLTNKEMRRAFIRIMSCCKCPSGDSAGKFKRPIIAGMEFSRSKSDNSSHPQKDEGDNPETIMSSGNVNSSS

Compound	activation at 10 µM [%]
CCCOc1nc(Oc2cccc(CC)c2)nc2oc(-c3cc(C)c(OCC(=O)O)c(C)c3)nc12 [Example 40, {4-[5-(3-ethylphenoxy)-7-propoxy-oxazolo[5,4-d]pyrimidin-2-yl]-2,6-dimethyl-phenoxy}-acetic acid]	95
CCCOc1nc(OC(C)CC)nc2oc(-c3cc(C)c(OCC(=O)O)c(C)c3)nc12 (centres unmarked) [Example 20, [4-(5-sec-butoxy-7-propoxy-oxazolo[5,4-d]pyrimidin-2-yl)-2,6-dimethyl-phenoxy]-acetic acid]	80
CCCOc1nc(Oc2cccc(SC(F)(F)F)c2)nc2oc(-c3cc(C)c(OCC(=O)O)c(C)c3)nc12 [Example 76, {2,6-dimethyl-4-[7-propoxy-5-(3-trifluoromethylsulfanyl-phenoxy)-oxazolo[5,4-d]pyrimidin-2-yl]-phenoxy}-acetic acid]	81

Further lines, results first:

activation at 10 µM [%]	Compound
107	CCCOc1nc(Oc2cccc(Cl)c2C)nc2oc(-c3cc(C)c(OCC(=O)O)c(C)c3)nc12 [Example 54, {4-[5-(3-chloro-2-methylphenoxy)-7-propoxy-oxazolo[5,4-d]pyrimidin-2-yl]-2,6-dimethyl-phenoxy}-acetic acid]
115	CCCOc1nc(Oc2cncc(Cl)c2)nc2oc(-c3cc(C)c(OCC(=O)O)c(C)c3)nc12 [Example 48, {4-[5-(5-chloropyridin-3-yloxy)-7-propoxy-oxazolo[5,4-d]pyrimidin-2-yl]-2,6-dimethyl-phenoxy}-acetic acid]
